According to patent US20250018046A1, “COMPOUNDS FOR TARGETING DEGRADATION OF IRAK4 PROTEINS” (BIOGEN MA INC, priority 2021, published 2025):

What follows are molecules tested against T1, IRAK4 (Homo sapiens, UniProt Q9NWZ3) (assay: IRAK4 degradation assay using the HiBiT Method). Conditions: 293T cells expressing HiBiT-tagged IRAK4; 6-hour incubation; Nano-Glo HiBiT Lytic Assay luminescence.
T1 construct: knocking-in a HiBiT fusion tag into the C-terminal of the IRAK4 gene in 293T cells; host or cells: 293T cells, knock-in of HiBiT at the endogenous IRAK4 locus
T1 sequence (Q9NWZ3 1-460): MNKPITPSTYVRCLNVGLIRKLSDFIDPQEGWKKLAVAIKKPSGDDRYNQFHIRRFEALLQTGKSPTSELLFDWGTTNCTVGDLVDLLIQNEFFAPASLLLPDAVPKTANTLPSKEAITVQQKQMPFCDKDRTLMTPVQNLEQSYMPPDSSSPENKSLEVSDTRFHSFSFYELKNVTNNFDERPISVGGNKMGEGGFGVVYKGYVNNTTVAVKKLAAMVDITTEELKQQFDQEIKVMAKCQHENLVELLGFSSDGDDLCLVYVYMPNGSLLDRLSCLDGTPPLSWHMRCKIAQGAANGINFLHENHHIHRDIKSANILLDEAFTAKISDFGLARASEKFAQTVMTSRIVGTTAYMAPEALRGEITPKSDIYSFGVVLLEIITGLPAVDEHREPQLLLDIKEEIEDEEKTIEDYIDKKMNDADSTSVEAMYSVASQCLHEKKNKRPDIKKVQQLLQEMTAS
Type: cell-based
In short: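 HEK293T cells with HiBiT knocked into the IRAK4 C-terminus, 10,000 cells per well, treated with an 11-point half-log series […] in duplicate for 6 hours at 37° C., 5% CO2. Remaining IRAK4 quantified by Nano-Glo HiBiT lytic luminescence against DMSO controls.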

SMILES | DC50 [µM]
CC(C)Oc1cc2nc([C@@H](Cc3ccccc3)NC(=O)CN3CCC(c4ccc(C5CCC(=O)NC5=O)cc4)CC3)cn2cc1NC(=O)c1cccc(C(F)(F)F)n1 (stereo partly drawn) [Example 78, N-[2-[(1R)-1-[[2-[4-[4-(2,6-dioxo-3-piperidyl)phenyl]-1-piperidyl]acetyl]amino]-2-phenyl-ethyl]-7-isopropoxy-imidazo[1,2-a]pyridin-6-yl]-6-(trifluoromethyl)pyridine-2-carboxamide] | 0.5 to 1
CC(C)Oc1cc2nc(CC3CCN(C(=O)CN4CCC(c5ccc(C6CCC(=O)NC6=O)cc5)CC4)CC3)cn2cc1NC(=O)c1cccc(C(F)(F)F)n1 (stereo not shown) [Example 79, N-[2-[[1-[2-[4-[4-(2,6-dioxo-3-piperidyl)phenyl]-1-piperidyl]acetyl]-4-piperidyl]methyl]-7-isopropoxy-imidazo[1,2-a]pyridin-6-yl]-6-(trifluoromethyl)pyridine-2-carboxamide] | 0.01 to 0.1
CC(C)Oc1cc2nc(C3CCN(C(=O)CCC4CCN(C(=O)c5ccc(OC6CCC(=O)NC6=O)cc5)CC4)CC3)cn2cc1NC(=O)c1cccc(C(F)(F)F)n1 (stereo not shown) [Example 81, N-[2-[1-[3-[1-[4-[(2,6-dioxo-3-piperidyl)oxy]benzoyl]-4-piperidyl]propanoyl]-4-piperidyl]-7-isopropoxy-imidazo[1,2-a]pyridin-6-yl]-6-(trifluoromethyl)pyridine-2-carboxamide] | 0.1 to 0.5
CC(C)Oc1cc2nc(C3CCN(C(=O)c4ccccc4CNC(=O)c4ccc(OC5CCC(=O)NC5=O)cc4)CC3)cn2cc1NC(=O)c1cccc(C(F)(F)F)n1 (stereo not shown) [Example 82, N-[2-[1-[2-[[[4-[(2,6-dioxo-3-piperidyl)oxy]benzoyl]amino]methyl]benzoyl]-4-piperidyl]-7-isopropoxy-imidazo[1,2-a]pyridin-6-yl]-6-(trifluoromethyl)pyridine-2-carboxamide] | 0.1 to 0.5
CC(C)Oc1cc2nc(C3CCN(C(=O)C4CCN(C(=O)c5ccc(OC6CCC(=O)NC6=O)cc5)CC4)CC3)cn2cc1NC(=O)c1cccc(C(F)(F)F)n1 (stereo not shown) [Example 84, N-[2-[1-[1-[4-[(2,6-dioxo-3-piperidyl)oxy]benzoyl]piperidine-4-carbonyl]-4-piperidyl]-7-isopropoxy-imidazo[1,2-a]pyridin-6-yl]-6-(trifluoromethyl)pyridine-2-carboxamide] | 0.5 to 1

Further lines, results first:

DC50 [µM] | SMILES
0.1 to 0.5 | CC(C)Oc1cc2nc(C3CCN(C(=O)C4CC5(CCCN5C(=O)c5ccc(OC6CCC(=O)NC6=O)cc5)C4)CC3)cn2cc1NC(=O)c1cccc(C(F)(F)F)n1 (stereo not shown) [Example 80, N-[2-[1-[5-[4-[(2,6-dioxo-3-piperidyl)oxy]benzoyl]-5-azaspiro[3.4]octane-2-carbonyl]-4-piperidyl]-7-isopropoxy-imidazo[1,2-a]pyridin-6-yl]-6-(trifluoromethyl)pyridine-2-carboxamide]
0.1 to 0.5 | CC(C)Oc1cc2nc(C3CCN(C(=O)C4CCCC5(CCN(C(=O)c6ccc(OC7CCC(=O)NC7=O)cc6)CC5)O4)CC3)cn2cc1NC(=O)c1cccc(C(F)(F)F)n1 (stereo not shown) [Example 83, N-[2-[1-[9-[4-[(2,6-dioxo-3-piperidyl)oxy]benzoyl]-1-oxa-9-azaspiro[5.5]undecane-2-carbonyl]-4-piperidyl]-7-isopropoxy-imidazo[1,2-a]pyridin-6-yl]-6-(trifluoromethyl) pyridine-2-carboxamide]
0.1 to 0.5 | Cc1cc(N2CCN(C(=O)CN3CCC(c4cn5cc(NC(=O)c6cccc(C(F)(F)F)n6)c(OC(C)C)cc5n4)CC3)CC2)ccc1NC1CCC(=O)NC1=O (stereo not shown) [Example 85, N-[2-[1-[2-[4-[4-[(2,6-dioxo-3-piperidyl)amino]-3-methyl-phenyl]piperazin-1-yl]-2-oxo-ethyl]-4-piperidyl]-7-isopropoxy-imidazo[1,2-a]pyridin-6-yl]-6-(trifluoromethyl) pyridine-2-carboxamide]
0.1 to 0.5 | CC(C)Oc1cc2nc(C3CCN(CC(=O)N4CCC(Oc5ccc(NC6CCC(=O)NC6=O)cc5)CC4)CC3)cn2cc1NC(=O)c1cccc(C(F)(F)F)n1 (stereo not shown) [Example 86, N-[2-[1-[2-[4-[4-[(2,6-dioxo-3-piperidyl)amino]phenoxy]-1-piperidyl]-2-oxo-ethyl]-4-piperidyl]-7-isopropoxy-imidazo[1,2-a]pyridin-6-yl]-6-(trifluoromethyl)pyridine-2-carboxamide]
0.01 to 0.1 | Cc1cc(NC2CCC(=O)NC2=O)ccc1C1CCN(C(=O)CN2CCC(c3cn4cc(NC(=O)c5cccc(C(F)(F)F)n5)c(OC(C)C)cc4n3)CC2)CC1 (stereo not shown) [Example 87, N-[2-[1-[2-[4-[4-[(2,6-dioxo-3-piperidyl)amino]-2-methyl-phenyl]-1-piperidyl]-2-oxo-ethyl]-4-piperidyl]-7-isopropoxy-imidazo[1,2-a]pyridin-6-yl]-6-(trifluoromethyl) pyridine-2-carboxamide]
